According to PMC11122949, “Metabolic Blockade-Based Genome Mining of Sea Anemone-Associated Streptomyces sp. S1502 Identifies Atypical Angucyclines WS-5995 A–E: Isolation, Identification, Biosynthetic Investigation, and Bioactivities” (Marine Drugs, 2024):

Columns and labels:
RBE = assay: MTT cytotoxicity assay, RBE; type: cell-based, human; details: 72 h
Description: (§1) Compounds 1–5 were tested for their cytotoxic activities against different normal and tumor human cell lines, the MTT assay was used to assess cytotoxicity as described previously. Briefly, different tumor cells and normal cells were seeded onto 96-well plates at the appropriate density and allowed to attach overnight. Drugs at various concentrations were added to the culture medium and cells were cultured for another 68 h at 37 °C. MTT (5 mg/mL, 20 μL/well) was then added to the wells for additional 4 h, and the medium was discarded before 150 μL of DMSO was added to dissolve the MTT-formazan crystals. Absorbance was measured at 540 nm, with background subtraction at 670 nm using Model 550 Microplate Reader (Bio-Rad, Hercules, CA, USA). The Bliss method was used to calculate the half maximal (50%) inhibitory concentration (IC50) values. Data represent the mean ± SD of at least three independent experiments.

Huvec = assay: MTT cytotoxicity assay, Huvec (normal cells); type: cell-based; details: 72 h, Huvec normal human cell line
Description: as §1

MCF-7 = assay: MTT cytotoxicity assay, MCF-7; type: cell-based, human
Description: as §1

A549 = assay: MTT cytotoxicity assay, A549; type: cell-based, human; details: A549, 72 h
Description: as §1

BT-549 = assay: MTT cytotoxicity assay, BT-549; type: cell-based, human; details: BT-549, 72 h
Description: as §1

NCM-460 = assay: MTT cytotoxicity assay, NCM-460 (normal cells); type: cell-based; details: 72 h
Description: as §1

Eimeria tenella = assay: In vitro anticoccidial activity (qPCR); type: cell-based; details: 48 h
Description: The number of Eimeria tenella spores and the cells were seeded in a 24-well plate at a ratio of 1:1 and incubated for 6 h, and the medium was discarded and washed with PBS three times. Then, 500 μL of medium was added to each well, followed by the addition of the medium containing the compounds, the blank control group (no spores and no compounds) and positive control group (with spores but no compound) were set, and 10 μM of sulfaclozinium chloride sodium served as a control drug, and three replicates were set up. The culture remained in an incubator containing 5% CO2 at 38 °C for 48 h. After 48 h, the medium was discarded and washed with PBS three times, and the total RNA of each well was extracted and reverse-transcribed into cDNA. qPCR was used to detect the effects of the compounds on the growth and development of E. tenella.

[1] = tested on: MCF-7, BT-549, RBE and A549; NCM-46 and Huvec; assay: MTT cytotoxicity, whole panel of cell lines; type: cell-based; details: four human cancer and two normal human cell lines
Description: as §1

[2] = tested on: Eimeria tenella infections; set-up: method as in PMID 7451360; details: animal experiments; cited from earlier work
fungi = tested on: fungi; set-up: method as in PMID 19798499; details: cited from earlier work
[3] = Homo sapiens, MCF7, MCF-7, 72 h
[4] = NCM460, NCM-460 normal human cell line

Row | IC50 (Eimeria tenella; Eimeria tenella, read-out: anti-E. tenella activity IC50) [µM] | SMILES | IC50 (RBE; Homo sapiens) [µM] | IC50 (Huvec; Homo sapiens, HUVEC) [µM] | IC50 (MCF-7; [3]) [µM] | IC50 (A549; Homo sapiens) [µM] | IC50 (BT-549; Homo sapiens) [µM] | IC50 (NCM-460; [4]) [µM] | IC50 (RBE) [µM] | IC50 (Huvec) [µM] | IC50 (MCF-7; MCF-7, 72 h) [µM] | IC50 (A549) [µM] | IC50 (BT-549) [µM] | IC50 (NCM-460; NCM-460 normal human cell line) [µM] | in vitro anti-E. tenella bioactivity (Eimeria tenella) | cytotoxic effects against the tested cell lines [1] | protective activity against Eimeria tenella infections [2] | antifungal activity (fungi)
1 | – | COc1cccc2c1C(=O)c1c(O)c3c(c(O)c1C2=O)C[C@@](O)(C(=O)CO)C[C@@H]3O[C@H]1C[C@H](N)[C@H](O)[C@H](C)O1 [Adriamycin, reference compound] | 3.62 | 3.87 | 2.96 | 4.62 | 6.42 | 3.24 | – | – | – | – | – | – | – | – | – | –
2 | – | N.N.[Cl][Pt][Cl] [Cisplatin, reference compound] | – | – | – | – | – | – | 4.26 | 5.26 | 4.49 | 9.34 | 14.2 | 19 | – | – | – | –
3 | – | CCOC(=O)c1cc(C)cc(OC)c1C1=C(O)C(=O)c2c(O)cccc2C1=O [Compound 1, WS-5995 E] | > 50 | > 50 | > 50 | > 50 | > 50 | > 50 | – | – | – | – | – | – | only exhibited activity at high concentrations | did not exhibit cytotoxic effects | – | –
4 | 2.21 | COc1cc(C)cc2c(=O)oc3c(c12)C(=O)c1cccc(O)c1C3=O [Compound 2, WS-5995A] | 21.4 | 31.2 | > 50 | > 50 | > 50 | 40.8 | – | – | – | – | – | – | significant anticoccidial activity | – | excellent protective activity | –
5 | – | COc1cc(C)cc(C(=O)O)c1C1=CC(=O)c2c(O)cccc2C1=O [Compound 3, WS-5995B] | 16.8 | 7.67 | 19.6 | > 50 | 5.97 | 18.5 | – | – | – | – | – | – | – | – | excellent protective activity | antifungal activity
6 | – | COc1cc(C)cc(C(=O)O)c1C1=C(O)C(=O)c2c(O)cccc2C1=O [Compound 4, WS-5995C] | > 50 | > 50 | > 50 | > 50 | > 50 | > 50 | – | – | – | – | – | – | not active | did not exhibit cytotoxic effects | – | –
7 | – | COC(=O)c1cc(C)cc(OC)c1C1=C(O)C(=O)c2c(O)cccc2C1=O [Compound 5, WS-5995D] | > 50 | > 50 | > 50 | > 50 | > 50 | > 50 | – | – | – | – | – | – | only exhibited activity at high concentrations | did not exhibit cytotoxic effects | – | –
